# In ChEMBL document CHEMBL1151240, “A new dimension to the biosynthetic products isolated from the sponge Negombata magnifica” (2004):
# Activity calls are given as the source filed them. The calls are words filed in the database; no cut-off is given here.
# System: A10
# Experiment: Disruption of actin cytoskeleton in rat A10 cells upto 10 ug/ml by rhodamine-phalloidin assay
# Format: functional
row,Compound,Activity
1,C/C(=C/C(=O)O)CC/C=C\[C@@H](C)CC[C@@H]1CC=CC(=O)O1,inactive
2,CO[C@]1([C@@H]2CSC(=O)N2)C[C@H]2C[C@@H](CC[C@H](C)/C=C\CC/C(C)=C\C(=O)O2)O1,inactive
3,C/C1=C/C(=O)O[C@@H]2C[C@@H](CC[C@H](C)/C=C\CC1)O[C@@](O)([C@H]1CSC(=O)N1)C2 [16-EPI-LATRUNCULIN B],5 µg/mL
4,C/C1=C/C(=O)O[C@@H]2C[C@@H](CC[C@H](C)/C=C\C=C\CC1)O[C@@](O)([C@@H]1CSC(=O)N1)C2 [LATRUNCULIN A],0.5 µg/mL
5,C/C1=C/C(=O)O[C@@H]2C[C@@H](CC[C@H](C)/C=C\CC1)O[C@@](O)([C@@H]1CSC(=O)N1)C2 [LATRUNCULIN B],0.5 µg/mL
